In US6583333B1, “Lymphoma-susceptible transgenic mice and methods for studying drug sensitivity of lymphomas” (Cold Spring Harbor Laboratory, priority 1998, dated 2003):

Key:
[1] = tested on: Eμ-myc/p53^−/− lymphoma; test: White blood cell counts of lymphoma-associated leukemia after treatment; assay type: in vivo; settings: Eμ-myc/p53^−/− mouse, 10 mg/kg, 0-24 hours after treatment, FIG. 6, one mouse
Procedure: Eμ-myc/p53^+ mice (C57BL/6) and Eμ-myc/p53^−/− (C57BL/6 x 129; p53^−/LOH in FIGS. 6 and 7) with leukemia associated with primary lymphoma, were treated with either adriamycin at 10 mg/kg of body weight or with 6 Gy of whole body gamma-irradiation. Blood samples were taken and white blood cells were counted in a hemocytometer at 0, 4, 8, 12 and 24 hours after treatment. […] The data plotted in FIGS. 6 and 7 are from one treated mouse of each genotype.

[2] = tested on: secondary tumors arising from transplanted L885 cells; test: Drug sensitivity of transplanted tumor cell line L885, by palpation; assay type: in vivo, mouse; settings: 10 mg/kg, 9 secondary tumors vs 22 primary tumors, FIG. 11
Procedure: (§1) Eμ-myc lymphomas were cultured using feeder layers (see Example 7). Several of these cell lines were transplanted into syngeneic C57BL/6 recipients by injection of 10^6 cells into the tail vein. Tumor-bearing animals were assessed for response to 10 mg/kg adriamycin therapy, by palpation for tumors.

[3] = tested on: primary myc-induced lymphomas in Eμ-myc transgenic mice; test: Response to therapy of primary myc-induced lymphomas (remission/relapse by palpation and blood smears); assay type: in vivo, mouse; settings: single treatment 10 mg/kg intraperitoneal, FIG. 4
Procedure: Eμ-myc transgenic mice were treated with 10 mg/kg body weight adriamycin (maximum tolerated dose) by intraperitoneal injection using adriamycin freshly resuspended in water to a final concentration of 1 mg/ml. Treated mice were monitored for remission and for relapse by palpation and by blood smears to obtain white blood cell counts.
Palpation is performed by gently feeling the mouse for bumps under the skin, which are enlarged lymph nodes.
Blood smears are done by collecting blood from the tail artery, and examining a dried droplet of blood which has been smeared on a glass microscope slide to be one cell layer thick at the edge. The blood smear is stained after drying, using LEUKOSTAT™ stain (Fisher Diagnostics cat. # CS43A-C). The blood smear can be mounted with Permount™ histological mounting medium (Fisher Scientific). Slides are viewed under 40X or oil emersion. Blood from mice affected by lymphoma are always compared with blood from mice from a normal mouse drawn at the same time.
The numbers of mice used to generate the data in FIG. 4 were 22 (first treatment), 14 (second treatment) and 5 (third treatment).

[4] = tested on: transplanted Eμ-myc lymphoma cells in C57BL/6 mice; test: Tumor transplantation into syngeneic mice, response to treatment by palpation; assay type: in vivo, mouse; settings: 10^6 cells by tail vein into C57BL/6, 10 mg/kg, compared with primary tumors, FIG. 5
Source text: Upon discovery of tumors in a Eμ-myc transgenic mouse, lymphoma cells were harvested, and 10^6 cells were immediately transplanted into multiple C57BL/6 mice (Taconic Laboratories) by tail vein injection. Tumors were allowed to form (usually in about two weeks). Treatment with adriamycin was given as in Example 5. […] The results (as assessed by palpation for tumors) plotted in FIG. 5 are from 22 mice with primary tumors, and 10 mice with transplanted tumors.

[5] = tested on: Eμ-myc lymphoma cell line L1025; test: In vitro sensitivity of lymphoma cell lines, viability by trypan blue exclusion; assay type: cell-based, mouse; settings: line L1025 from a resistant tumor, 24-hour treatment, FIG. 8
Procedure: Several lymphoma lines have been isolated from Eμ-myc mice in which the response to adriamycin of the original tumor was known. Eμ-myc lymphoma cell lines cultured in vitro were tested for their sensitivity to adriamycin. Lymphocytes were counted. The cells were spun down and resuspended in pre-conditioned B cell media (media that has been on feeder cells for 24 hours) at a concentration of 2×10^6 cells/ml. 10^6 cells were seeded per well of a tissue culture plate, in 0.5 ml. Adriamycin was suspended in pre-conditioned B cell media at twice the final concentration. Final concentrations of adriamycin were 0.25, 0.05, 0.075, 0.1, 0.5 and 1.0 μg/ml. 0.5 of medium was added to each well, to a final volume of 1 ml. Cells were incubated for 24 hours at 37° C. Cells were transferred from the wells to Eppendorf tubes on ice, and centrifuged at 2500 rpm for 5 minutes at 4° C. The medium was poured off the cell pellets, leaving about 200 μl of medium in each tube. One drop of trypan blue dye was added to each tube, and a total of 200 cells per sample were counted under a microscope. Live cells exclude trypan blue and appear white; dead cells take up trypan blue and appear blue.
L877 has been tested as Eμ-myc/p53^−/−; the other cell lines are derived from Eμ-myc/p53^+ mice and are presumably p53^+/+.

[6] = tested on: Eμ-myc lymphomas from p53^+/− mice; test: Effect of p53 defect on therapy in Eμ-myc/p53^+/− mice; assay type: in vivo, mouse; settings: 10 Eμ-myc/p53^+/− mice, 10 mg/kg, FIG. 14
Procedure: Since most Eμ-myc lymphomas from p53^+/− mice lose the wild-type p53 allele, it was possible to study the response of essentially p53-deficient tumors in mice that were otherwise hemizygous for p53 and not prone to thymic lymphoma (see strategy in FIG. 13). […] The response of Eμ-myc lymphomas with p53 defects to 10 mg/kg adriamycin therapy resembled that of Eμ-myc/p53^+/+ lymphomas following their second relapse (See FIG. 4).

[7] = tested on: L700 cell line derived from an Eμ-myc (p53^+) tumor; test: Detection of caspase activation (biotin-YVAD-amk labelling, blot); assay type: cell-based, mouse; settings: 0.1 μg/ml, 0, 3, 6 or 9 hours, FIG. 10
Procedure: Procedures were as published in Faleiro, L., et al., EMBO J. 16:2271-2281, 1997). Isolated L700 cells growing in culture dishes were treated with 0.1 μg/ml adriamycin. After 0, 3, 6 or 9 hours, cell lysates were made in the presence of 10 μM biotin-YVAD-amk to label caspases, and the protein concentrations were determined. Protein samples were run on a 15% acrylamide-0.1% SDS gel. Proteins were transferred from the gel to Immobilon P membrane (Millipore). Membranes were washed in methanol and air dried. Dried, baked membranes were incubated in biotinylated horseradish peroxidase at 25 ng/ml. Labeled proteins were visualized with ECL reagent (Amersham).

[8] = tested on: transplanted L1537 cells (homozygous for p53^−); test: Drug sensitivity of transplanted tumor cell line L1537; assay type: in vivo, mouse; settings: two C57BL/6 mice, 10 mg/kg
Procedure: as §1
Tumor cell line L1537 was derived from an Eμ-myc/p53^+/− lymphoma and was tested as homozygous for p53^−. Tumor cells were transplanted, by the method described above, into two C57BL/6 mice.

COc1cccc2c1C(=O)c1c(O)c3c(c(O)c1C2=O)C[C@@](O)(C(=O)CO)C[C@@H]3O[C@H]1C[C@H](N)[C@H](O)[C@H](C)O1 [adriamycin]
sensitivity of lymphoma-associated leukemia (white blood cell counts) [1]: insensitive
response of transplanted L885 tumors to therapy [2]: virtually indistinguishable from that seen in the primary, non-transplanted lymphomas
response to therapy (time to relapse by palpation) [3]: the vast majority of the mice respond to therapy
response of transplanted (secondary) tumors to treatment [4]: A higher percentage of these secondary tumors failed to respond to treatment
sensitivity in cell culture (percent viable cells) [5]: sensitive in cell culture
response to therapy (percentage of tumor-free mice) [6]: almost completely refractory to therapy
caspase activation [7]: caspase activation following drug treatment
response of transplanted L1537 tumors to therapy [8]: Both mice failed to respond
